Results as given in ChEMBL document CHEMBL1131167, “Structure-activity relationships of a series of analogues of the octadecaneuropeptide ODN on calcium mobilization in rat astrocytes” (1998).
Peptide text beside a SMILES is read from it.

Key:
Format in all cases: functional
[1] = species: Rattus norvegicus; experiment: Effect of compound on basal [Ca2+] and ODN induced [Ca2+] increase in cultured rat astrocytes measured at 10*e-6 conc (M)
[2] = species: Rattus norvegicus; experiment: Effect of compound on basal [Ca2+] and ODN induced [Ca2+] increase in cultured rat astrocytes measured at 10*e-8+10e-6 conc (M) in the presence of [Ala15]ODN. p<0.001
[3] = species: Rattus norvegicus; experiment: Effect of compound on basal [Ca2+] and ODN induced [Ca2+] increase in cultured rat astrocytes measured at 10*e-8+10e-6 conc (M) in the presence of [Ala9]ODN. p<0.001
[4] = species: Rattus norvegicus; experiment: Effect of compound on basal [Ca2+] and ODN induced [Ca2+] increase in cultured rat astrocytes measured at 10*e-8+10e-6 conc (M) in the presence of [D-Leu15]-ODN
[5] = species: Rattus norvegicus; experiment: Effect of compound on basal [Ca2+] and ODN induced [Ca2+] increase in cultured rat astrocytes measured at 10*e-8+10e-6 conc (M) in the presence of [D-Leu5-]OP
[6] = species: Rattus norvegicus; experiment: Effect of compound on basal [Ca2+] and ODN induced [Ca2+] increase in cultured rat astrocytes measured at 10*e-8+10e-6 conc (M) in the presence of [D-Thr9]-ODN
[7] = species: Rattus norvegicus; experiment: Effect of compound on basal [Ca2+] and ODN induced [Ca2+] increase in cultured rat astrocytes measured at 10*e-8 conc (M).

## CC(C)C[C@H](NC(=O)CNC(=O)[C@@H]1CCCN1C(=O)[C@@H](N)CCCNC(=N)N)C(=O)N[C@@H](C)C(=O)N[C@@H](CC(=O)O)C(=O)N[C@@H](CC(C)C)C(=O)N[C@@H](CCCCN)C(=O)O (H-RPGLADLK-OH)
[1]
  [Ca2+] variation: 37 nM

## CC(C)C[C@H](NC(=O)CNC(=O)[C@@H]1CCCN1C(=O)[C@H](CCCN=C(N)N)NC(=O)[C@H](CC(=O)O)NC(=O)[C@@H](NC(=O)[C@H](CC(N)=O)NC(=O)[C@@H](NC(=O)[C@H](CC(=O)O)NC(=O)CNC(=O)[C@@H](NC(=O)[C@@H](NC(=O)[C@H](C)NC(=O)[C@@H](N)CCC(N)=O)[C@@H](C)O)C(C)C)C(C)C)[C@@H](C)O)C(=O)N[C@@H](CC(C)C)C(=O)N[C@@H](CC(=O)O)C(=O)N[C@@H](CC(C)C)C(=O)N[C@@H](CCCCN)C(=O)O [QATVGDVNTDRPGLLDLK] (H-QATVGDVNTDRPGLLDLK-OH)
[2]
  [Ca2+] variation: 36 nM
[3]
  [Ca2+] variation: 39 nM
[4]
  [Ca2+] variation: 25 nM
[5]
  [Ca2+] variation: 39 nM
[6]
  [Ca2+] variation: 31 nM
[7]
  [Ca2+] variation: 62 nM
